# Results as given in patent publication US7858349B2, “Anti-cancer compounds” (The Regents of the University of Colorado, priority 1999, dated 2010).
# pIC50: −log10 of the molar value.
# What was measured:
# PC3 PC cells = assay: Inhibition of PC3 tumor growth in vivo in nude mice; parameters: species or system athymic nude mice; key to PC3 In vivo % inhib.: an IC50 value of “0” represents no detectable anti-cancer activity for a drug in a given cell line; “Stim.” indicates the observation of a stimulatory activity on the growth of the cancer cell line; conditions: percent inhibition of tumor growth in nude mice; prostate cancer; i.p. 5 mg/kg/every second day or 10 mg/kg/every fourth day
# Description: Compounds having high in vitro cytotoxic activity were tested against implanted tumors in vivo. Athymic nude mice were implanted subcutaneously with suspensions (2 million SHP-77 SCLC cells, 1 million A549 NSCLC cells or 1.5 million PC3 PC cells) in Matrigel suspension. On the eighth day after tumor implantation groups of 5 mice bearing implants were injected intraperitoneally with the compounds being tested at 5 mg/kg/every second day or at 10 mg/kg/every fourth day; control animals were injected with an equal volume of isotonic saline. Less soluble compounds were initially dissolved in dimethyl sulfoxide (DMSO) and diluted with medium. In those cases the control injections contained the same concentration of DMSO. Tumor size was measured with a caliper three times per week. Tumor volume was calculated by the formula: Volume(cc)=3.14×(length)×(width)^2/6 At autopsy tumors were removed and weighed. Tumor inhibition was calculated on both weight and measurement basis. In each Table, an IC50 value of “0” represents no detectable anti-cancer activity for a drug in a given cell line and “Stim.” indicates the observation of a stimulatory activity on the growth of the cancer cell line.
# SCLC strain SHP-77 = assay: MTT assay for cell survival, SCLC SHP-77 in vitro; format: cell-based, human; conditions: ED50 for killing of SCLC strain SHP-77 in vitro, 4 days, 0 = no detectable activity, read-out: SCLC SHP-77 IC50
SMILES,PC3 In vivo % inhib. (PC3 PC cells),pIC50 (SCLC strain SHP-77)
"Cc1ccc(CSC(C)(C)C(NC(=O)C=Cc2c(F)c(F)c(F)c(F)c2F)C(=O)NC2CC(C)(C)NC(C)(C)C2)cc1 (stereo not drawn) [Analog M-1430, F5c-Pen(Mbzl)-Atmp]",50%,5.21
"CC1(C)CC(NC(=O)C(Cc2ccc(OCc3c(Cl)cccc3Cl)cc2)NC(=O)C2CCc3ccccc3C2)CC(C)(C)N1 (stereo not drawn) [Analog M-1440, Th2n-OC2Y-Atmp]",15%,5.46
"CCCCC/C=C\C/C=C\C/C=C\C/C=C\CCCC(=O)NC(Cc1ccc(OCc2c(Cl)cccc2Cl)cc1)C(=O)NC1CC(C)(C)NC(C)(C)C1 (stereo not drawn) [Analog M-1442, Arac-OC2Y-Atmp]",31%,5.19
"CC1(C)CC(NC(=O)C(Cc2ccc(OCc3c(Cl)cccc3Cl)cc2)NC(=O)/C=C/c2cc(C(F)(F)F)cc(C(F)(F)F)c2)CC(C)(C)N1 (stereo not drawn) [Analog M-1444, Tf2c-OC2Y-Atmp]",11%,5.85
"CC(C=CC1=C(C)CCCC1(C)C)=CC=CC(C)=CC(=O)NC(Cc1ccc(OCc2c(Cl)cccc2Cl)cc1)C(=O)NC1CC(C)(C)NC(C)(C)C1 (stereo not drawn) [Analog M-1446, Ret-OC2Y-Atmp]",60%,5.17
"CC1(C)CC(NC(=O)C(Cc2ccc(OCc3c(Cl)cccc3Cl)cc2)NC(=O)CC2Cc3ccccc3C2)CC(C)(C)N1 (stereo not drawn) [Analog M-1448, 2Ina-OC2Y-Atmp]",11%,4.89
"CC1(C)CC(NC(=O)C(Cc2ccc(OCc3c(Cl)cccc3Cl)cc2)NC(=O)c2ccccc2O)CC(C)(C)N1 (stereo not drawn) [Analog M-1450, 2Hyb-OC2Y-Atmp]",Stim.,4.89
"CC1(C)CC(NC(=O)C(Cc2ccc(OCc3c(Cl)cccc3Cl)cc2)NC(=O)c2c(F)c(N)cc(F)c2F)CC(C)(C)N1 (stereo not drawn) [Analog M-1452, Atfb-OC2Y-Atmp]",Stim.,5.14
"CC1(C)CC(NC(=O)C(Cc2ccc(OCc3c(Cl)cccc3Cl)cc2)NC(=O)C=Cc2ccc(C=O)cc2)CC(C)(C)N1 (stereo not drawn) [Analog M-1456, Fcin-OC2Y-Atmp]",17%,5.40
"CC1(C)CC(NC(=O)C(Cc2ccc(OCc3c(Cl)cccc3Cl)cc2)NC(=O)c2ccc(S(N)(=O)=O)cc2)CC(C)(C)N1 (stereo not drawn) [Analog M-1458, Sab-OC2Y-Atmp]",Stim.,< 4.22
"CC1(C)CC(NC(=O)C(Cc2ccc(OCc3c(Cl)cccc3Cl)cc2)NC(=O)C=Cc2ccc(B(O)O)cc2)CC(C)(C)N1 (stereo not drawn) [Analog M-1460, Bcin-OC2Y-Atmp]",38%,4.64
"CC1(C)CC(NC(=O)C(Cc2ccc(OCc3c(Cl)cccc3Cl)cc2)NC(=O)C2CC(=O)NC(=O)N2)CC(C)(C)N1 (stereo not drawn) [Analog M-1462, Hor-OC2Y-Atmp]",7%,< 4.22
"CC(C=CC1(O)C(C)=CC(=O)CC1(C)C)=CC(=O)NC(Cc1ccc(OCc2c(Cl)cccc2Cl)cc1)C(=O)NC1CC(C)(C)NC(C)(C)C1 (stereo not drawn) [Analog M-1464, Aba-OC2Y-Atmp]",14%,4.85
"CC1(C)CC(NC(=O)C(Cc2ccc(C#N)cc2)NC(=O)CCCCC2SCC3NC(=O)NC32)CC(C)(C)N1 (stereo not drawn) [Analog M-1466, Biot-PCNF-Atmp]",29%,< 4.22
"Cc1ccc(CSC(C)(C)C(NC(=O)CCCCC2SCC3NC(=O)NC32)C(=O)NC2CC(C)(C)NC(C)(C)C2)cc1 (stereo not drawn) [Analog M-1468, Biot-Pen(Mbzl)-Atmp]",46%,< 4.22
"Cc1ccc(CSC(C)(C)C(NC(=O)CCCc2c[nH]c3ccccc23)C(=O)NC2CC(C)(C)NC(C)(C)C2)cc1 (stereo not drawn) [Analog M-1474, 3Ibu-Pen(Mbzl)-Atmp]",Stim.,5.11
"CC1(C)CC(NC(=O)C(Cc2ccc(OCc3c(Cl)cccc3Cl)cc2)NC(=O)c2ccc(C(F)(F)F)cc2)CC(C)(C)N1 (stereo not drawn) [Analog M-1484, Ptmb-OC2Y-Atmp]",Stim.,5.74
"Cc1ccc(CSC(C)(C)C(NC(=O)COc2c(F)c(F)c(F)c(F)c2F)C(=O)NC2CC(C)(C)NC(C)(C)C2)cc1 (stereo not drawn) [Analog M-1486, F5po-Pen(Mbzl)-Atmp]",21%,5.38
"Cc1ccc(CSC(C)(C)C(NC(=O)C23CC4CC(CC(C4)C2)C3)C(=O)NC2CC(C)(C)NC(C)(C)C2)cc1 (stereo not drawn) [Analog M-1492, Aca-Pen(Mbzl)-Atmp]",15%,5.47
"CC1(C)CC(NC(=O)C(Cc2ccc(OCc3c(Cl)cccc3Cl)cc2)NC(=O)C23CC4CC(CC(C4)C2)C3)CC(C)(C)N1 (stereo not drawn) [Analog M-1494, Aca-OC2Y-Atmp]",40%,5.80

SMILES,PC3 In vivo % inhib. (PC3 PC cells),pIC50 (SCLC strain SHP-77)
"CC1(C)CC(NC(=O)[C@H](Cc2ccc(C#N)cc2)NC(=O)C23CC4CC(CC(C4)C2)C3)CC(C)(C)N1 [Analog M-1496, Aca-PCNF-Atmp]",2%,< 4.22
"Cc1ccc(CSC(C)(C)C(NC(=O)CCCc2ccc(N(CCCl)CCCl)cc2)C(=O)NC2CC(C)(C)NC(C)(C)C2)cc1 (stereo not drawn) [Analog M-1498, Chl-Pen(Mbzl)-Atmp]",20%,5.46
"Cc1ccc(CSC(C)(C)C(NC(=O)C=Cc2cc(F)cc(F)c2F)C(=O)NC2CC(C)(C)NC(C)(C)C2)cc1 (stereo not drawn) [Analog M-1502, F3c-Pen(Mbzl)-Atmp]",11%,5.47
"COc1ccc2cc(C(C)C(=O)NC(C(=O)NC3CC(C)(C)NC(C)(C)C3)C(C)(C)SCc3ccc(C)cc3)ccc2c1 (stereo not drawn) [Analog M-1506, Napr-Pen(Mbzl)-Atmp]",13%,5.33
"COc1ccc2cc(C(C)C(=O)NC(Cc3ccc(C#N)cc3)C(=O)NC3CC(C)(C)NC(C)(C)C3)ccc2c1 (stereo not drawn) [Analog M-1508, Napr-PCNF-Atmp]",45%,4.64
"Cc1ccc(CSC(C)(C)C(NC(=O)C(C)(c2ccccc2)c2ccccc2)C(=O)NC2CC(C)(C)NC(C)(C)C2)cc1 (stereo not drawn) [Analog M-1510, 22Dp-Pen(Mbzl)-Atmp]",Stim.,5.38
"CC1(C)CC(NC(=O)[C@H](Cc2ccc(C#N)cc2)NC(=O)C(C)(c2ccccc2)c2ccccc2)CC(C)(C)N1 [Analog M-1512, 22Dp-PCNF-Atmp]",48%,4.66
"COc1ccc2c(c1)c(CC(=O)NC(C(=O)NC1CC(C)(C)NC(C)(C)C1)C(C)(C)SCc1ccc(C)cc1)c(C)n2C(=O)c1ccc(Cl)cc1 (stereo not drawn) [Analog M-1518, Indo-Pen(Mbzl)-Atmp]",Stim.,5.22
"COc1ccc2c(c1)c(CC(=O)N[C@@H](Cc1ccc(C#N)cc1)C(=O)NC1CC(C)(C)NC(C)(C)C1)c(C)n2C(=O)c1ccc(Cl)cc1 [Analog M-1520, Indo-PCNF-Atmp]",Stim.,4.89
"Cc1ccc(CSC(C)(C)C(NC(=O)c2cnccn2)C(=O)NC2CC(C)(C)NC(C)(C)C2)cc1 (stereo not drawn) [Analog M-1522, 2Pyz-Pen(Mbzl)-Atmp]",Stim.,4.51
"CC1(C)CC(NC(=O)C(Cc2ccc(OCc3c(Cl)cccc3Cl)cc2)NS(=O)(=O)c2ccc(OC(F)(F)F)cc2)CC(C)(C)N1 (stereo not drawn) [Analog M-1536, 4Tmbs-OC2Y-Atmp]",Stim.,5.49
"CC1(C)CC(NC(=O)C(Cc2ccc(OCc3c(Cl)cccc3Cl)cc2)NC(=O)c2ccc(OC(F)(F)F)cc2)CC(C)(C)N1 (stereo not drawn) [Analog M-1538, 4Tfmb-OC2Y-Atmp]",Stim.,5.74
"CC1(C)CC(NC(=O)C(Cc2ccc(OCc3c(Cl)cccc3Cl)cc2)NC(=O)c2ccc(-c3ccccc3)cc2)CC(C)(C)N1 (stereo not drawn) [Analog M-1542, 4Bpc-OC2Y-Atmp]",Stim.,5.19
"O=C(C=Cc1c(F)c(F)c(F)c(F)c1F)NC(Cc1ccc(OCc2c(Cl)cccc2Cl)cc1)C(=O)NC1CN2CCC1CC2 [Analog M-1544, F5c-OC2Y-(R)-Aqu]",28%,5.22
"O=C(C=Cc1c(F)c(F)c(F)c(F)c1F)NC(Cc1ccc(OCc2c(Cl)cccc2Cl)cc1)C(=O)NC1CN2CCC1CC2 [Analog M-1546, F5c-OC2Y-(S)-Aqu]",29%,5.74
"O=C(C=Cc1c(F)c(F)c(F)c(F)c1F)NC(Cc1ccc(OCc2c(Cl)cccc2Cl)cc1)C(=O)NC1CCN(Cc2ccccc2)CC1 (stereo not drawn) [Analog M-1552, F5c-OC2Y-Abzp]",52%,4.89
"O=C(C=Cc1c(F)c(F)c(F)c(F)c1F)NC(Cc1ccc(OCc2c(Cl)cccc2Cl)cc1)C(=O)N1CCN(c2ncccn2)CC1 (stereo not drawn) [Analog M-1554, F5c-OC2Y-Pmpz]",Stim.,5.17
"CC1CN(C(=O)C(Cc2ccc(OCc3c(Cl)cccc3Cl)cc2)NC(=O)C=Cc2c(F)c(F)c(F)c(F)c2F)CC(C)N1Cc1ccccc1 (stereo not drawn) [Analog M-1556, F5c-OC2Y-cDmbp]",59%,4.74
"COc1ccc2c(c1)c(CC(=O)N[C@@H](Cc1ccc(OCc3c(Cl)cccc3Cl)cc1)C(=O)NC1CCN(Cc3ccccc3)CC1)c(C)n2C(=O)c1ccc(Cl)cc1 [Analog M-1558, Indo-OC2Y-Abzp]",Stim.,5.02
